Assay results published in patent US20250026747A1, “COLIBACTIN DERIVATIVES AND METHODS OF TREATING, AMELIORATING, AND/OR PREVENTING CANCER” (priority 2021, published 2025).

Tested on: γH2AX
Assay: Immunofluorescence assay of γH2AX foci in HeLa cells
Type: cell-based, human
Settings: 4 h treatment, 20 h further culture; for number of positive cells for γH2AX foci: 11 μM, positive when >5 foci; for γH2AX foci formation: 1-100 μM
Experimental: FIGS. 7A-7B evaluates the Colibactin 742 (4) and its linear precursor 9 recapitulate the clb phenotype. […] HeLa cells were treated with the linear precursor 9 (1-100 μM), colibactin 742 (4) (1-100 μM) or MMC (150 nM) for 4 h. The cells were then washed and incubated for 20 h before immunofluorescence imaging. Cells were considered positive when >5 FANCD2 or γH2AX foci formed. Means and standard deviations of results from at least three independent experiments are shown. FIG. 7B depicts the DNA content histograms upon treatment with colibactin 742 (4, 11 μM) or 9 (11 μM) quantification of the sub-population of the histograms.
The present study then probed the DNA damage response that was activated following exposure to colibactin 742 (4) or its linear precursor 9. In mammalian cells, DNA interstrand cross-links (ICLs) are repaired by the Fanconi anemia pathway, and activation of this pathway is observed when eukaryotic cells are infected with clb^+ bacteria. Upon detection of an ICL, the Fanconi anemia protein D2 (FANCD2) is activated by monoubiquitinylation and recruited to the ICL to coordinate repair. Following initiation of repair, a double-strand break (DSB) is generated, which in turns triggers the formation of phospho-SER139-H2AX (γH2AX) nuclear foci. […] Consequently, the instant study probed for activation of FANCD2 and γH2AX by immunofluorescence imaging in cells treated with 4 or 9. Using conditions that closely mimic the bacterial coinfection experiments, the instant study treated HeLa cells with colibactin 742 (4) (1-100 μM), the linear precursor 9 (1-100 μM), or MMC (150 nM, higher concentrations of MMC reduced cell viability) for 4 h. The cells were then washed and cultured for a further 20 h. […] Thus, the synthetic compounds 4 and 9 induce a similar activation of the eukaryotic DNA damage response as clb^+ E. coli.
Cells were seeded at a density of 3500 cells per well to achieve total well volumes of 20 μL in 384-well plates (black with an optically clear bottom, Greiner Bio One 781091) using a Thermo Combidrop liquid dispenser. Cells were grown for 24 h, followed by the addition of test compounds using an Echo acoustic liquid handler (Labcyte). For each tested drug concentration, a 20 nL aliquot of the 1000× stock was added to 20 μL of cells to provide a final DMSO concentration of 0.1%. The compounds were incubated for 4 h at concentrations ranging from 1.2 μM to 100 μM in growth medium, at 37° C., 5% CO2. Each plate contained negative vehicle control wells (0.1% DMSO) and positive control wells (0.15 μM Mitomycin C, MMC). After 4 h incubation, the cells were washed once with Dulbecco's Phosphate-buffered solution (DPBS, Life Technologies), then fresh growth medium was added. The cells were incubated for 20 h, fixed, and subjected to immunofluorescence imaging.
Cells were fixed with 4% paraformaldehyde (PFA) (Electron Microscopy Sciences) in the presence of 0.02% Triton X-100 at room temperature (RT) for 20 min and then incubated in permeabilization/blocking solution [10% FBS and 0.5% Triton X-100 in phosphate-buffered saline (PBS)] at RT for 1 h. Primary antibodies were diluted 1:500 in permeabilization/blocking solution and used to stain cells at 4° C. overnight. […] Cells were imaged using the InCell 2200 Imaging System (GE Corp.) and analyzed using InCell Analyzer software (GE Corp.) to quantify the number of γH2AX and FANCD2 foci. Cells were counted as positive for focus formation when 5 foci/nucleus were detected.

C[C@H]1CCC(CC(=O)NC2(C(=O)CC(=O)NCC(=O)c3csc(CCc4csc(CNC(=O)CC(=O)C5(NC(=O)CC6=N[C@@H](C)CC6)CC5)n4)n3)CC2)=N1 [compound 9]
number of positive cells for γH2AX foci: four-fold increase

C[C@H]1CCC(C2=C(CC(=O)NCC(=O)c3csc(CCc4csc(CNC(=O)CC5=C(C6=N[C@@H](C)CC6)C(=O)NC5(C)C)n4)n3)C(C)(C)NC2=O)=N1 [compound 22]
γH2AX foci formation: did not induce

CCOC(=O)c1csc(CNC(=O)CC2=C(C3=N[C@@H](C)CC3)C(=O)NC23CC3)n1 [compound 23, reference compound]
number of positive cells for γH2AX foci: induced significant γH2AX foci formation | number of positive cells for γH2AX foci (with respect to DMSO) (33 μM): three-fold increase

CCOC(=O)c1nc(C2(O)CNC(=O)C2C2=C(C3=N[C@@H](C)CC3)C(=O)NC23CC3)cs1 (some centres unmarked) [compound 24]
γH2AX foci formation: did not induce
